# Results published in US7713987B2, “Pyrimidine-2,4-diamines and their uses” (Rigel Pharmaceuticals, Inc., priority 2005, dated 2010).
# Tests used:
# [1] = Pharmacokinetics of the compounds in sprague-dawley rats (oral and IV bolus, plasma LC/MS/MS); format: in vivo
# Method: Compounds were administered to rats orally at a dose of 4-5 mg/kg using PEG-400 as a vehicle. Selected compounds were also administered as an IV bolus at a dose of 1 mg/kg. Plasma samples were obtained from either the portal or jugular veins and analyzed by LC/MS/MS for both the parent pyrimidine-2,4-diamine and the prodrug compounds synthesized in the examples above. Bioavailability was calculated using the AUC of pyrimidine-2,4-diamine in jugular vein samples and the AUC of an IV bolus dose of pyrimidine-2,4-diamine. For selected compounds, portal vein samples were evaluated for both prodrug and pyrimidine-2,4-diamine and the information was used to determine the percent absorption of the orally administered dose.
# [2] = Metabolic stability of prodrugs in rat hepatic microsomes; format: in vitro ADME; conditions: in the presence of NADPH, first value of cell, read-out: T1/2 (half-life of prodrug)
# Method: (§1) Selected compounds were incubated in rat and human hepatic microsomes (with and without NADPH) and analyzed by LC/MS/MS for both the prodrug and pyrimidine-2,4-diamine.
# (§2) Studies were conducted in microsomes to determine whether the prodrug moieties could be hydrolyzed by CYP450 enzymes.
# [3] = Metabolic stability of prodrugs in human hepatic microsomes; format: in vitro ADME; conditions: in the presence of NADPH, second value of cell, read-out: T1/2 (half-life of prodrug)
# Method: as §1, §2
SMILES,"% of prodrug absorbed ([1]; AUC of prodrug in portal vein after oral dose vs AUC in jugular vein after IV dose, dose-corrected)","clearance ([1]; Sprague-Dawley, rat, plasma, IV bolus 1 mg/kg, read-out: Clearance rate of prodrug)",half-life [2],half-life [3]
"COc1cc(N(C(=O)OCCN2CCOCC2)c2ncc(F)c(Nc3ccc4c(n3)NC(=O)C(C)(C)O4)n2)cc(OC)c1OC [Example 2, N4-(2,2-Dimethyl-3-oxo-4H-5-pyrido[1,4]oxazin-6-yl)-5-fluoro-N2-[[2-(morpholin-4-yl)ethoxy]carbonyl]-N2-(3,4,5-trimethoxyphenyl)-2,4-pyrimidinediamine]",20%,72 mL/min/kg,< 5 min,< 5 min
COc1cc(N(C(=O)OCC2CCCCN2C)c2ncc(F)c(Nc3ccc4c(n3)NC(=O)C(C)(C)O4)n2)cc(OC)c1OC (centres unmarked) [Example 3],–,–,< 5 min,< 5 min
"COc1cc(N(C(=O)N[C@H](C(=O)OC(C)(C)C)C(C)C)c2ncc(F)c(Nc3ccc4c(n3)NC(=O)C(C)(C)O4)n2)cc(OC)c1OC [Example 8, 1S—N2-[[-1-(t-Butoxycarbonyl)-2-methylpropyl]aminocarbonyl]-N4-(2,2-dimethyl-3-oxo-4H-5-pyrido[1,4]oxazin-6-yl)-5-fluoro-N2-(3,4,5-trimethoxyphenyl)-2,4-pyrimidinediamine]",–,–,35 min,10 min
